Results taken from patent US9840513B2 (AbbVie S.à.r.l., priority 2015, dated 2017).

How the values were obtained:
[1] = molecular target: T1, F508delCFTR cell surface expression in CFBE41o-F508delCFTR-HRP cells (Homo sapiens, UniProt P13569, DEL508-508); assay: Cell Surface Expression-Horse Radish Peroxidase (CSE-HRP) Assay; type: cell-based; details: for EC50: CFBE41o-F508delCFTR-HRP cells, 18-24 hours at 33° C., 8-point curve, highest concentration 20 μM; for Maximum % activity (%): maximum at any tested concentration, normalized to on-plate positive control (3 μM)
T1 construct: fused on or other part: Horseradish peroxidase (HRP) reporter inserted in the fourth exofacial (extracellular) loop of CFTR; expression is doxycycline-inducible
T1 sequence (P13569 with tags, fused parts or gaps DEL508-508 limits assumed): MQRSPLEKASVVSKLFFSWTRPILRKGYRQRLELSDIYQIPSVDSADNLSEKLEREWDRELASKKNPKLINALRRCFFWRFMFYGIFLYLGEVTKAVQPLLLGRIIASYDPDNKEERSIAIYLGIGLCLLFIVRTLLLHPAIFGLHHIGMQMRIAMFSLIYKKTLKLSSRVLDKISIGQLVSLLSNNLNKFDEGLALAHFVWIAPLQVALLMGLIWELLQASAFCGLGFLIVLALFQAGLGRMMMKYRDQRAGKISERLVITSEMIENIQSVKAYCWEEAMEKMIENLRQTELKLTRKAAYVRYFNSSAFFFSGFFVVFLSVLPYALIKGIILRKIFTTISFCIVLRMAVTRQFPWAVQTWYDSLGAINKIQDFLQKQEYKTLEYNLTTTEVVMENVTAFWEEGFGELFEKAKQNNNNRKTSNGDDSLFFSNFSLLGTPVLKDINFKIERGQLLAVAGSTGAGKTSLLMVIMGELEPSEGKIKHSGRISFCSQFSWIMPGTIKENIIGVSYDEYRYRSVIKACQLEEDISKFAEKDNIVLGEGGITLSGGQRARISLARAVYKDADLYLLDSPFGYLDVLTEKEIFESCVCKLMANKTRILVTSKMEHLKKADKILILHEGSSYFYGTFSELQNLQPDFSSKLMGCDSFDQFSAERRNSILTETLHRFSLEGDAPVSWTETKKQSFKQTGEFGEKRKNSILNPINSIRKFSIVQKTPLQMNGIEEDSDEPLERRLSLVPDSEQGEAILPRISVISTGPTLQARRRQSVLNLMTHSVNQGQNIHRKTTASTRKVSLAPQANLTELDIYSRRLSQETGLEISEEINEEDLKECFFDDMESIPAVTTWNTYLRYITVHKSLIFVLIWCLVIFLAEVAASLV
T1 sequence (P13569 919-1480 limits assumed, stated change not applied): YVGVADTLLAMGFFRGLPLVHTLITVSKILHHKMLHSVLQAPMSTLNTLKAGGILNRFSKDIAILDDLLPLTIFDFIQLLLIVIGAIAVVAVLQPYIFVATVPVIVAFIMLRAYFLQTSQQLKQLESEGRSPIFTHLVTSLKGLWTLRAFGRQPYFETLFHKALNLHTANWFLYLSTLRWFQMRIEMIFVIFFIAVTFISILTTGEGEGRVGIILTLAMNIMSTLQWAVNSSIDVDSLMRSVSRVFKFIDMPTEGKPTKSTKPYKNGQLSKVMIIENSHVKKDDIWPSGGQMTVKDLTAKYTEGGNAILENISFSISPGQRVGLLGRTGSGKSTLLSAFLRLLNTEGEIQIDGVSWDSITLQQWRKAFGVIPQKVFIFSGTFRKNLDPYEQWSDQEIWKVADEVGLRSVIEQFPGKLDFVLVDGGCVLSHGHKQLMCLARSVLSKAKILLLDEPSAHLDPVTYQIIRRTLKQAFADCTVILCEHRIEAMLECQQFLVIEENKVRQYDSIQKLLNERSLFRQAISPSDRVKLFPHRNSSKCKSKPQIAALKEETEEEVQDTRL
Outline: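 CFBE41o- cells with HRP-tagged F508delCFTR, expression induced by 0.5 μg/mL doxycycline for 72 h at 37 °C, then compound for 18-24 h at 33 °C (8-point, 3-fold, top 20 μM). Surface HRP measured by luminol luminescence; % activity normalised to 3 μM positive-control corrector; EC50 from variable-slope sigmoidal fit, three replicate plates.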

[2] = molecular target: T2, F508delCFTR in primary hBE cells with F508del/F508del CFTR mutation (Homo sapiens, UniProt P13569, DEL508-508); assay: Transepithelial Clamp Circuit on Human Bronchial Epithelial Cells Conductance Assay (hBE-TECC); type: cell-based; details: for EC50: primary hBE cells F508del/F508del, 18-24 hours at 37° C., equivalent short circuit current, 6 concentrations
T2 construct: cells isolated from CF patients with the homozygous mutation; endogenous in cells; host or cells: primary human bronchial epithelial (hBE) cells from F508del/F508del CF patients
T2 sequence (P13569 with tags, fused parts or gaps DEL508-508): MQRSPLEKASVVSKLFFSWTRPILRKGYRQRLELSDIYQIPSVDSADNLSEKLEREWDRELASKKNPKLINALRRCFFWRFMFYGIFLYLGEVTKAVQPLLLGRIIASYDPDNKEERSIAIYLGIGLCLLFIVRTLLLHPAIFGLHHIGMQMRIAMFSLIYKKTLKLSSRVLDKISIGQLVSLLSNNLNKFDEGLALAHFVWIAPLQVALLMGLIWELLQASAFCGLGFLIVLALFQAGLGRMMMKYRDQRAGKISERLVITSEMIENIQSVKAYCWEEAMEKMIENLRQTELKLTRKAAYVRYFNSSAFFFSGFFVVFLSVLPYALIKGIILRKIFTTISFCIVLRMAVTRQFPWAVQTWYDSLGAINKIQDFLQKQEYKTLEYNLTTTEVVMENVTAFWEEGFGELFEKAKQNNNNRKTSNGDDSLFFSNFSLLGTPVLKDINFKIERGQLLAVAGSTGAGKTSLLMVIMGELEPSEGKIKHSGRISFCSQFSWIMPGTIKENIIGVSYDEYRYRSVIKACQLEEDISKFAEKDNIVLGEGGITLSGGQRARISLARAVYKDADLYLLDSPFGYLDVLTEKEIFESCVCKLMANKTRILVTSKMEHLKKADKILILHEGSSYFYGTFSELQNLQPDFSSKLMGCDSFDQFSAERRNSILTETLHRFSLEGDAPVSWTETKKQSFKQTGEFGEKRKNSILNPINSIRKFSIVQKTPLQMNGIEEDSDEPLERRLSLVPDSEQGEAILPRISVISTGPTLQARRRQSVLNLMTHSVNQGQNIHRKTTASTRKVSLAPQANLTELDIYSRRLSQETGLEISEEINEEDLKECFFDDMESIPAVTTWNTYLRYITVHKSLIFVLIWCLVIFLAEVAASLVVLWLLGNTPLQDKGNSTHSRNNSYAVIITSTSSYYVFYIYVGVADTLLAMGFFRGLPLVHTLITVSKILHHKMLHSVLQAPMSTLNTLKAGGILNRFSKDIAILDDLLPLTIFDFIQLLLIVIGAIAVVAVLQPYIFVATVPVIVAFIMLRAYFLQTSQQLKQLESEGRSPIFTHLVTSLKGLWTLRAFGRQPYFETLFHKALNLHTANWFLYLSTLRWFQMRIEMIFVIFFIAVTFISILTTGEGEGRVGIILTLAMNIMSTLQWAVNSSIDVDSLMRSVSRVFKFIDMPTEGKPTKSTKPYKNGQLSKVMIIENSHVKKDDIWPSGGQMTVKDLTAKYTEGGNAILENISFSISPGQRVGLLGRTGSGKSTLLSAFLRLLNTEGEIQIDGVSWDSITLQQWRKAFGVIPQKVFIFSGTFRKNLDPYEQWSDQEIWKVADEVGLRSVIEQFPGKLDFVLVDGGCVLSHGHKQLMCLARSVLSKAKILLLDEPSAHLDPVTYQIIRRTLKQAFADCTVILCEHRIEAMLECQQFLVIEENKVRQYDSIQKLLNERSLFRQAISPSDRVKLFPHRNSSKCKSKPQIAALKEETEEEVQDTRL
Source text: Transepithelial Clamp Circuit on Human Bronchial Epithelial Cells Conductance Assay:
A cell based assay using the primary human bronchial epithelial cells (hBE) was used as a secondary assay to test novel F508delCFTR correctors for their activity on primary hBE cells with F508del/F508del CFTR mutation. The assay used a TECC-24 (Transepithelial Clamp Circuit for 24 wells) instrument that measures the functionality of the mutated channel by measuring the equivalent short circuit current (Ieq) generated by the polarized epithelial cells. The instrument works by measuring the transepithelial potential difference (Vt) and transepithelial resistance (Rt) in an open circuit format, and the Ieq is calculated by using Ohms law (Ieq=Vt/Rt). The assay was run in a 24-well format and all 24-wells were measured at the same time point giving a higher throughput for this assay.
Primary human bronchial epithelial (hBE) cells from F508del/F508delCFTR patients were expanded from 1×10^6 to 250×10^6 cells (Neuberger T, Burton B, Clark H and VanGoor F; Cystic Fibrosis, Methods in Mole Biol 741; eds. Amaral M D and Kunzelmann K, 2011). For this purpose, cells isolated from CF patients with the homozygous mutation were seeded onto 24 well Corning (Cat #3378) filter plates that were coated with 3T3 conditioned media and grown at an air-liquid interface for 35 days using an Ultroser® G supplemented differentiation media. Apical surface mucus was removed 72 hours before the experiment using 3 mM dithiothreitol (DTT) in phosphate buffered saline (PBS). The apical surface was washed again 24 hours before the experiment using PBS. The cells were incubated with the desired dose response of the corrector compounds 18-24 hours at 37° C., 5% CO2. The corrector compounds are only added on the basolateral side of the epithelial cells.
On the day of measuring the corrector activity on the TECC, the cells were switched into a bicarbonate and serum free F-12 Coon's medium and allowed to equilibrate for 90 minutes in a CO2 free incubator. At the time of measurement, the apical and basolateral sides of the filter were bathed with the F-12 Coon's modification media (with 20 mM 4-(2-hydroxyethyl)-1-piperazineethanesulfonic acid (HEPES), pH 7.4 (using 1 M tris(hydroxymethyl)aminomethane (Tris)), and the measurements were made at 36.5° C. Transepithelial voltage (Vt) and transepithelial resistance (Rt) were measured using a 24 channel transepithelial current clamp (TECC-24). Current responses to the sequential addition of benzamil (apical 6 μM addition; for inhibiting epithelial ENaC channel), forskolin (apical and basolateral 10 μM addition; for activating the CFTR channel), control potentiator (N-(3-carbamoyl-5,5,7,7-tetramethyl-4,7-dihydro-5H-thieno[2,3-c]pyran-2-yl)-1H-pyrazole-5-carboxamide; apical and basolateral […] addition; for potentiating the CFTR channel) and bumetanide (basolateral 20 μM addition; for inhibiting the Na:2Cl:K co-transporter, an indirect measure of inhibiting the Cl-secretion driven by CFTR channel) were measured.
All plates contained negative controls (dimethyl sulfoxide, DMSO) which coupled with the control potentiator (N-(3-carbamoyl-5,5,7,7-tetramethyl-4,7-dihydro-5H-thieno[2,3-c]pyran-2-yl)-1H-pyrazole-5-carboxamide) sets the null response and positive controls (3 μM of 3-[(2R,4R)-4-({[1-(2,2-difluoro-1,3-benzodioxol-5-yl)cyclopropyl]carbonyl}amino)-7-methoxy-3,4-dihydro-2H-chromen-2-yl]benzoic acid) coupled with the control potentiator sets the 100% response to measure the correction of the mutated CFTR channel. The maximum percent activity is reported relative to the positive control value.
The % activity measured at each of the 6 test concentrations of the test compound was normalized to the on-plate positive control using the following formula: % activity=[[…]]*100 […]

[3] = relative to positive control (3 μM) coupled with control potentiator

EC50 [1] [nM] | Maximum % activity (%) [1] [%] | EC50 [2] [nM] | Maximum % activity (%) [2, 3] [%] | Maximum % activity (%) ([2]; testing concentration 1 μM) | Compound
730 | 83 | 564 | 70 | – | Cc1ccc(NC(=O)[C@]2(C)CCc3c2ccc2c3OCO2)cc1-c1cccc(C(=O)O)c1 (single isomer, unassigned) [Example 37]
930 | 114 | 246 | 83 | – | C[C@]1(C(=O)N[C@H]2C[C@@H](c3ccccc3)O[C@@H](c3ccc(C(=O)O)cc3)C2)COc2cc3c(cc21)OC(F)(F)O3 (single isomer, unassigned) [Example 44]
90 | 126 | 6 | 103 | – | COc1ccc2c(c1)O[C@@H](c1cnc([C@H](O)CO)cn1)C[C@H]2NC(=O)[C@@]1(C)COc2cc3c(cc21)OC(F)(F)O3 (single isomer, unassigned) [Example 192]
300 | 159 | 242 | 99 | – | Cc1ccc(NC(=O)C2(C)COc3cc4c(cc32)OC(F)(F)O4)nc1-c1cccc(C(=O)O)c1 (stereo not shown) [Example 2, 3-{6-[(2,2-difluoro-7-methyl-6,7-dihydro-2H-furo[2,3-f][1,3]benzodioxole-7-carbonyl)amino]-3-methylpyridin-2-yl}benzoic acid]
290 | 157 | 199 | 103 | – | Cc1ccc(NC(=O)[C@@]2(C)COc3cc4c(cc32)OC(F)(F)O4)nc1-c1cccc(C(=O)O)c1 [Example 6, 3-(6-{[(7R)-2,2-difluoro-7-methyl-6,7-dihydro-2H-furo[2,3-f][1,3]benzodioxole-7-carbonyl]amino}-3-methylpyridin-2-yl)benzoic acid]
510 | 166 | – | – | 91 | COc1ccc2c(c1)O[C@@H](c1cccc(C(=O)O)c1)C[C@H]2NC(=O)C1(C)COc2cc3c(cc21)OC(F)(F)O3 (stereo partly drawn) [Example 11, 3-{(2R,4R)-4-[(2,2-difluoro-7-methyl-6,7-dihydro-2H-furo[2,3-f][1,3]benzodioxole-7-carbonyl)amino]-7-methoxy-3,4-dihydro-2H-1-benzopyran-2-yl}benzoic acid]
290 | 138 | – | – | – | C[C@]1(C(=O)N[C@@H]2C[C@H](C3CCC(CO)(C(=O)O)CC3)Oc3cc(OC(F)(F)F)ccc32)COc2cc3c(cc21)OC(F)(F)O3 (stereo partly drawn) [Example 288, 4-[(2R,4R)-4-{[(7R)-2,2-difluoro-7-methyl-6,7-dihydro-2H-furo[2,3-f][1,3]benzodioxole-7-carbonyl]amino}-7-(trifluoromethoxy)-3,4-dihydro-2H-1-benzopyran-2-yl]-1-(hydroxymethyl)cyclohexane-1-carboxylic acid]
640 | 140 | – | – | – | C[C@]1(C(=O)N[C@@H]2C[C@H](C3CCC(CN)(C(=O)O)CC3)Oc3cc(OC(F)(F)F)ccc32)COc2cc3c(cc21)OC(F)(F)O3 (stereo partly drawn) [Example 289, 1-(aminomethyl)-4-[(2R,4R)-4-{[(7R)-2,2-difluoro-7-methyl-6,7-dihydro-2H-furo[2,3-f][1,3]benzodioxole-7-carbonyl]amino}-7-(trifluoromethoxy)-3,4-dihydro-2H-1-benzopyran-2-yl]cyclohexane-1-carboxylic acid]
530 | 189 | – | – | – | COc1cc2c(cc1Br)[C@H](NC(=O)[C@@]1(C)COc3cc4c(cc31)OC(F)(F)O4)C[C@H]([C@H]1CC[C@H](C(=O)O)CC1)O2 [Example 290, trans-4-[(2R,4R)-6-bromo-4-{[(7R)-2,2-difluoro-7-methyl-6,7-dihydro-2H-furo[2,3-f][1,3]benzodioxole-7-carbonyl]amino}-7-methoxy-3,4-dihydro-2H-1-benzopyran-2-yl]cyclohexane-1-carboxylic acid]
670 | 117 | – | – | – | COc1ccc2c(c1)O[C@@H]([C@H]1CC[C@H](C(=O)O)CC1)C[C@H]2NC(=O)[C@@]1(C)COc2c1cc1c(c2I)OC(F)(F)O1 [Example 291, trans-4-[(2R,4R)-4-{[(7R)-2,2-difluoro-4-iodo-7-methyl-6,7-dihydro-2H-furo[2,3-f][1,3]benzodioxole-7-carbonyl]amino}-7-methoxy-3,4-dihydro-2H-1-benzopyran-2-yl]cyclohexane-1-carboxylic acid]
7540 | 99 | – | – | – | COc1ccc2c(c1)O[C@@H](C1CCC(C(=O)O)CC1)C[C@H]2NC(=O)[C@]1(C)COc2cc3c(cc21)OC(F)(F)O3 (stereo partly drawn) [Example 292, 4-[(2R,4R)-4-{[(7S)-2,2-difluoro-7-methyl-6,7-dihydro-2H-furo[2,3-f][1,3]benzodioxole-7-carbonyl]amino}-7-methoxy-3,4-dihydro-2H-1-benzopyran-2-yl]cyclohexane-1-carboxylic acid]
1630 | 115 | – | – | – | COc1ccc2c(c1)O[C@H](C1CCC(C(=O)O)CC1)C[C@@H]2NC(=O)[C@]1(C)COc2cc3c(cc21)OC(F)(F)O3 (stereo partly drawn) [Example 293, 4-[(2S,4S)-4-{[(7S)-2,2-difluoro-7-methyl-6,7-dihydro-2H-furo[2,3-f][1,3]benzodioxole-7-carbonyl]amino}-7-methoxy-3,4-dihydro-2H-1-benzopyran-2-yl]cyclohexane-1-carboxylic acid]
1720 | 98 | – | – | – | (7R)—N-(6-{[2R)-2,3-dihydroxypropyl]amino}pyridin-2-yl)-2,2-difluoro-7-methyl-6,7-dihydro-2H-furo[2,3-f][1,3]benzodioxole-7-carboxamide [Example 92]
11100 | 23 | – | – | – | (7R)—N-[5-(3R,4R)-dihydroxypyrrolidin-1-yl)pyrazin-2-yl]-2,2-difluoro-7-methyl-6,7-dihydro-2H-furo[2,3-f][1,3]benzodioxole-7-carboxamide and (7R)—N-[5-(3S,4S)-dihydroxypyrrolidin-1-yl)pyrazin-2-yl]-2,2-difluoro-7-methyl-6,7-dihydro-2H-furo[2,3-f][1,3]benzodioxole-7-carboxamide [Example 121]

Compound | EC50 [1] [nM] | Maximum % activity (%) [1] [%] | EC50 [2] [nM] | Maximum % activity (%) [2, 3] [%] | Maximum % activity (%) ([2]; testing concentration 1 μM)
(7R)—N-[6-(3-benzylpyrrolidin-1-yl)pyridin-2-yl]-2,2-difluoro-7-methyl-6,7-dihydro-2H-furo[2,3-f][1,3]benzodioxole-7-carboxamide [Example 113] | 1110 | 83 | – | – | –
methyl 4-[(2R,4S,6S)-4-{[(7R)-2,2-difluoro-7-methyl-6,7-dihydro-2H-furo[2,3-f][1,3]benzodioxole-7-carbonyl]amino}-6-phenyloxan-2-yl]benzoate and methyl 4-[(2S,4R,6R)-4-{[(7R)-2,2-difluoro-7-methyl-6,7-dihydro-2H-furo[2,3-f][1,3]benzodioxole-7-carbonyl]amino}-6-phenyloxan-2-yl]benzoate [Example 33] | 1180 | 131 | – | – | –
